# Where two headings read alike, the source gives them in different places.
# Key:
# Format in all cases: in vivo
# [1] = tested on: foxtail, giant (giant foxtail, Setaria faberii); test: Test C pre-/postemergence greenhouse herbicide test; details: Setaria faberi, Foxtail, Giant, read-out: Plant response rating; for pest or weed control at 31 g/ha: 31 g ai/ha; for pest or weed control at 62 g/ha: 62 g ai/ha; for pest or weed control at 125 g/ha: 125 g ai/ha; for pest or weed control at 250 g/ha: 250 g ai/ha
# Summary of the method: (§1)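 Greenhouse pre- and postemergence screen: compounds in a non-phytotoxic solvent mix plus surfactant were applied to soil/sand-sown seeds or to 1- to 4-leaf plants. Visual rating 13–15 d later, 0 (no effect) to 100 (complete control).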
# [2] = tested on: galium (catchweed bedstraw, Galium aparine); test: as above; details: Galium, read-out: Plant response rating; for pest or weed control at 31 g/ha: 31 g ai/ha; for pest or weed control at 62 g/ha: 62 g ai/ha; for pest or weed control at 125 g/ha: 125 g ai/ha; for pest or weed control at 250 g/ha: 250 g ai/ha
# Summary of the method: as §1
# kochia (Kochia scoparia) = test: as above
# Summary of the method: as §1
# [3] = tested on: ryegrass, Italian (Italian ryegrass, Lolium multiflorum); test: as above; details: Lolium multiflorum, Ryegrass, Italian, read-out: Plant response rating; for pest or weed control at 31 g/ha: 31 g ai/ha; for pest or weed control at 62 g/ha: 62 g ai/ha; for pest or weed control at 125 g/ha: 125 g ai/ha; for pest or weed control at 250 g/ha: 250 g ai/ha
# Summary of the method: as §1
# [4] = tested on: oilseed rape (Brassica napus); test: as above; details: Oilseed Rape, Postemergence
# Summary of the method: as §1
# [5] = tested on: velvetleaf (Abutilon theophrasti); test: as above; details: Abutilon theophrasti, Velvetleaf, read-out: Plant response rating; for pest or weed control at 31 g/ha: 31 g ai/ha; for pest or weed control at 62 g/ha: 62 g ai/ha; for pest or weed control at 125 g/ha: 125 g ai/ha; for pest or weed control at 250 g/ha: 250 g ai/ha
# Summary of the method: as §1
# rice (Oryza sativa) = test: Test B flooded paddy test; details: Oryza sativa, 312 h, Flood, scale of 0 to 100, 0 is no effect, 100 is complete control, 13 to 15 d, read-out: Plant response rating, Rice
# Summary of the method: (§2)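 Visual scores from 0 (no effect) to 100 (complete control) are relative to controls, assessed 13 to 15 d after treatment under greenhouse conditions. Treatment went into the paddy water of pots flooded 3 cm deep, with seedlings at the 2-leaf stage and flooding maintained.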
# [6] = tested on: sedge, umbrella (small-flower umbrella sedge, Cyperus difformis); test: Test B flooded paddy test; details: Cyperus difformis, 312 h, Flood, scale of 0 to 100, 0 is no effect, 100 is complete control, 13 to 15 d, read-out: Plant response rating, Sedge, Umbrella
# Summary of the method: as §2
# [7] = tested on: ducksalad (Heteranthera limosa); test: Test B flooded paddy test; details: Heteranthera limosa, 312 h, Flood, scale of 0 to 100, 0 is no effect, 100 is complete control, 13 to 15 d, read-out: Plant response rating, Ducksalad
# Summary of the method: as §2
# [8] = tested on: barnyardgrass (Echinochloa crus-galli); test: Test B flooded paddy test; details: Echinochloa crus-galli, 312 h, Flood, scale of 0 to 100, 0 is no effect, 100 is complete control, 13 to 15 d, read-out: Plant response rating, Barnyardgrass
# Summary of the method: as §2
# [9] = tested on: morningglory (Ipomoea coccinea); test: Test C pre-/postemergence greenhouse herbicide test; details: Morningglory
# Summary of the method: as §1
smiles,measurement,setting,value
"Cc1cc(Oc2ccnc(C(F)(F)F)c2)nn(-c2ccc(C(F)(F)F)cc2)c1=O [Compound 6, 4-methyl-2-[4-(trifluoromethyl)phenyl]-6-[[2-(trifluoromethyl)-4-pyridinyl]oxy]-3(2H)-pyridazinone]",pest or weed control at 31 g/ha,"[1]; post-emergence, Postemergence",25%
same,pest or weed control at 62 g/ha,"[1]; post-emergence, Postemergence",35%
same,pest or weed control at 125 g/ha,"[1]; post-emergence, Postemergence",65%
same,pest or weed control at 250 g/ha,"[1]; post-emergence, Postemergence",85%
same,pest or weed control at 31 g/ha,"[2]; post-emergence, Postemergence",90%
same,pest or weed control at 62 g/ha,"[2]; post-emergence, Postemergence",90%
same,pest or weed control at 125 g/ha,"[2]; post-emergence, Postemergence",90%
same,pest or weed control at 250 g/ha,"[2]; post-emergence, Postemergence",90%
same,Plant response rating,"kochia (Kochia scoparia); Postemergence, 31 g ai/ha",90
same,Plant response rating,"kochia (Kochia scoparia); Postemergence, 62 g ai/ha",90
same,Plant response rating,"kochia (Kochia scoparia); Postemergence, 125 g ai/ha",90
same,Plant response rating,"kochia (Kochia scoparia); Postemergence, 250 g ai/ha",95
same,pest or weed control at 31 g/ha,"[3]; post-emergence, Postemergence",5%
same,pest or weed control at 62 g/ha,"[3]; post-emergence, Postemergence",10%
same,pest or weed control at 125 g/ha,"[3]; post-emergence, Postemergence",15%
same,pest or weed control at 250 g/ha,"[3]; post-emergence, Postemergence",35%
same,Plant response rating,[4]; 31 g ai/ha,85
same,Plant response rating,[4]; 62 g ai/ha,85
same,Plant response rating,[4]; 125 g ai/ha,95
same,Plant response rating,[4]; 250 g ai/ha,95
same,pest or weed control at 31 g/ha,"[5]; post-emergence, Postemergence",45%
same,pest or weed control at 62 g/ha,"[5]; post-emergence, Postemergence",45%
same,pest or weed control at 125 g/ha,"[5]; post-emergence, Postemergence",55%
same,pest or weed control at 250 g/ha,"[5]; post-emergence, Postemergence",95%
same,plant injury at 125 g/ha,rice (Oryza sativa); 125 g ai/ha,0%
same,pest or weed control at 125 g/ha,[6]; 125 g ai/ha,0%
same,pest or weed control at 125 g/ha,[7]; 125 g ai/ha,0%
same,pest or weed control at 125 g/ha,[8]; 125 g ai/ha,0%
"Cc1cc(=O)n(-c2ccc(F)cc2)nc1Oc1ccnc(C(F)(F)F)c1 [Compound 14, 2-(4-fluorophenyl)-5-methyl-6-[[2-(trifluoromethyl)-4-pyridinyl]oxy]-3 (2H)-pyridazinone]",pest or weed control at 31 g/ha,"[1]; post-emergence, Postemergence",5%
same,pest or weed control at 62 g/ha,"[1]; post-emergence, Postemergence",10%
same,pest or weed control at 125 g/ha,"[1]; post-emergence, Postemergence",10%
same,pest or weed control at 250 g/ha,"[1]; post-emergence, Postemergence",15%
same,pest or weed control at 31 g/ha,"[1]; pre-emergence, Preemergence",80%
same,pest or weed control at 62 g/ha,"[1]; pre-emergence, Preemergence",98%
same,pest or weed control at 125 g/ha,"[1]; pre-emergence, Preemergence",100%
same,pest or weed control at 250 g/ha,"[1]; pre-emergence, Preemergence",100%
same,Plant response rating,"[9]; Postemergence, 31 g ai/ha",75
same,Plant response rating,"[9]; Postemergence, 62 g ai/ha",75
same,Plant response rating,"[9]; Postemergence, 125 g ai/ha",80
same,Plant response rating,"[9]; Postemergence, 250 g ai/ha",98
same,Plant response rating,"[9]; Preemergence, 31 g ai/ha",35
same,Plant response rating,"[9]; Preemergence, 62 g ai/ha",60
same,Plant response rating,"[9]; Preemergence, 125 g ai/ha",65
same,Plant response rating,"[9]; Preemergence, 250 g ai/ha",75
same,pest or weed control at 31 g/ha,"[2]; post-emergence, Postemergence",50%
same,pest or weed control at 62 g/ha,"[2]; post-emergence, Postemergence",55%
same,pest or weed control at 125 g/ha,"[2]; post-emergence, Postemergence",55%
same,pest or weed control at 250 g/ha,"[2]; post-emergence, Postemergence",75%
same,pest or weed control at 31 g/ha,"[2]; pre-emergence, Preemergence",60%
same,pest or weed control at 62 g/ha,"[2]; pre-emergence, Preemergence",98%
same,pest or weed control at 125 g/ha,"[2]; pre-emergence, Preemergence",100%
same,pest or weed control at 250 g/ha,"[2]; pre-emergence, Preemergence",100%
same,Plant response rating,"kochia (Kochia scoparia); Postemergence, 31 g ai/ha",25
same,Plant response rating,"kochia (Kochia scoparia); Postemergence, 62 g ai/ha",35
same,Plant response rating,"kochia (Kochia scoparia); Postemergence, 125 g ai/ha",55
same,Plant response rating,"kochia (Kochia scoparia); Postemergence, 250 g ai/ha",80
same,Plant response rating,"kochia (Kochia scoparia); Preemergence, 31 g ai/ha",45
same,Plant response rating,"kochia (Kochia scoparia); Preemergence, 62 g ai/ha",75
same,Plant response rating,"kochia (Kochia scoparia); Preemergence, 125 g ai/ha",90
same,Plant response rating,"kochia (Kochia scoparia); Preemergence, 250 g ai/ha",90
same,pest or weed control at 31 g/ha,"[3]; post-emergence, Postemergence",5%
same,pest or weed control at 62 g/ha,"[3]; post-emergence, Postemergence",5%
same,pest or weed control at 125 g/ha,"[3]; post-emergence, Postemergence",10%
same,pest or weed control at 250 g/ha,"[3]; post-emergence, Postemergence",25%
same,pest or weed control at 31 g/ha,"[3]; pre-emergence, Preemergence",0%
same,pest or weed control at 62 g/ha,"[3]; pre-emergence, Preemergence",5%
same,pest or weed control at 125 g/ha,"[3]; pre-emergence, Preemergence",30%
same,pest or weed control at 250 g/ha,"[3]; pre-emergence, Preemergence",50%
same,pest or weed control at 31 g/ha,"[5]; post-emergence, Postemergence",10%
same,pest or weed control at 62 g/ha,"[5]; post-emergence, Postemergence",30%
same,pest or weed control at 125 g/ha,"[5]; post-emergence, Postemergence",50%
same,pest or weed control at 62 g/ha,"[5]; pre-emergence, Preemergence",10%
same,pest or weed control at 125 g/ha,"[5]; pre-emergence, Preemergence",20%
same,pest or weed control at 250 g/ha,"[5]; pre-emergence, Preemergence",100%
same,plant injury at 250 g/ha,rice (Oryza sativa); 250 g ai/ha,30%
same,pest or weed control at 250 g/ha,[6]; 250 g ai/ha,75%
same,pest or weed control at 250 g/ha,[7]; 250 g ai/ha,75%
same,pest or weed control at 250 g/ha,[8]; 250 g ai/ha,40%

# — patent US10202361B2, “Pyridazinones as herbicides” (E I DU PONT DE NEMOURS AND COMPANY, priority 2014, dated 2019)
